Measured values from patent publication US20120122924A1, “NAMPT INHIBITORS” (ABBOTT LABORATORIES, priority 2010, published 2012).

Molecular target: recombinant, human, C-terminally-His tagged NAMPT (Homo sapiens, UniProt P43490)
Assay: Time-Resolved Fluorescence Resonance Energy Transfer (TR-FRET) binding assay of NAMPT
Conditions: 6.8 nM NAMPT, 200 nM probe (Oregon Green 488-conjugated APO866), 1 nM Tb-anti-His antibody, 2-3 hours
Method: Determination of the utility of compounds having Formula (I) as binders to and inhibitors of NAMPT was performed using a Time-Resolved Fluorescence Resonance Energy Transfer (TR-FRET) binding assay.
Time-Resolved Fluorescence Resonance Energy Transfer (TR-FRET) Binding Assay of NAMPT
The assay was carried out in 18 uL low volume plates (Owens Corning) in reaction buffer (50 mM HEPES (NaOH), pH 7.5, 100 mM NaCl, 10 mM MgCl2, 1 mM DTT, 1% Glycerol) using 6.8 nM recombinant, human, C-terminally-His tagged NAMPT, 1 nM Tb-anti-His antibody (Invitrogen, Cat # PV5895), and 200 nM probe (Oregon Green 488-conjugated APO866; A-1251667.0). Plates were covered, and reactions were carried out for 2-3 hours. Plates were read with Envision (Laser Lantha low volume protocol) after 2 to 3 hours. Excitation was carried out at 337 nm, and the ratio of emission of Oregon Green (520 nm) to terbium (492 nm) was determined and used to calculate IC50 values of test compounds.

Sequence of recombinant, human, C-terminally-His tagged NAMPT (P43490 whole entry): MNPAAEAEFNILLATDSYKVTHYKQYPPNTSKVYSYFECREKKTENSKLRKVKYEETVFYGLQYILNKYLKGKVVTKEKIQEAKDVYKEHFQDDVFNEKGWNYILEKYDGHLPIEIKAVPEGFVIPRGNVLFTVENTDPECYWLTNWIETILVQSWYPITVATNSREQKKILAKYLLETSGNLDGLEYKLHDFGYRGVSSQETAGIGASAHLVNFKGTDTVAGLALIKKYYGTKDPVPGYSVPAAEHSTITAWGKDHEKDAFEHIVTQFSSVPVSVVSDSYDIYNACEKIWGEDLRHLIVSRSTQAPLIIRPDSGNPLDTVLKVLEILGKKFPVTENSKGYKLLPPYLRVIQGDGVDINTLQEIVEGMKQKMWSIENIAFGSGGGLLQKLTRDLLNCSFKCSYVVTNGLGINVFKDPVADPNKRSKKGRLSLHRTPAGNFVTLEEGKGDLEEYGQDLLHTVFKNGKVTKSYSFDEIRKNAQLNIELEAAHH

| Compound | IC50 [nM] |
| --- | --- |
| O=C(NCCc1cccs1)c1ccc(NC(=O)N2CCc3ccccc3C2)nc1 [Example 19, N-(5-{[2-(2-thienyl)ethyl]carbamoyl}pyridin-2-yl)-3,4-dihydroisoquinoline-2(1H)-carboxamide] | 195 |
| O=C(Nc1ccc(NC(=O)N2CCc3ccccc3C2)cc1)c1ccoc1 [Example 83, N-[4-(3-furoylamino)phenyl]-3,4-dihydroisoquinoline-2(1H)-carboxamide] | 269 |
| CC(C)CCn1cc(-c2ccc(NC(=O)N3CCc4ccccc4C3)cc2)cn1 [Example 37, N-{4-[1-(3-methylbutyl)-1H-pyrazol-4-yl]phenyl}-3,4-dihydroisoquinoline-2(1H)-carboxamide] | 298 |
| CCCC(=O)N1CC=C(c2ccc(NC(=O)N3CCc4ccccc4C3)cc2)CC1 [Example 44, N-[4-(1-butyryl-1,2,3,6-tetrahydropyridin-4-yl)phenyl]-3,4-dihydroisoquinoline-2(1H)-carboxamide] | 13.6 |
| O=C(Nc1ccc(NC(=O)N2CCc3ccccc3C2)cc1)c1cn[nH]c1 [Example 89, N-{4-[(1H-pyrazol-4-ylcarbonyl)amino]phenyl}-3,4-dihydroisoquinoline-2(1H)-carboxamide] | 203 |
| O=C(CCS(=O)(=O)c1ccccc1)Nc1ccc(NC(=O)N2CCc3ccccc3C2)cc1 [Example 67, N-(4-{[3-(phenylsulfonyl)propanoyl]amino}phenyl)-3,4-dihydroisoquinoline-2(1H)-carboxamide] | 16.7 |
| O=C(NCCCc1ccccc1)c1ccc(NC(=O)N2CCc3ccncc3C2)cc1 [Example 25, N-{4-[(3-phenylpropyl)carbamoyl]phenyl}-3,4-dihydro-2,7-naphthyridine-2(1H)-carboxamide] | 597 |
| O=C(Nc1ccc(C2=CCN(C(=O)c3ccccc3)CC2)cc1)N1CCc2ccccc2C1 [Example 43, N-[4-(1-benzoyl-1,2,3,6-tetrahydropyridin-4-yl)phenyl]-3,4-dihydroisoquinoline-2(1H)-carboxamide] | 10.1 |
| O=C(NCCc1cccs1)c1ccc(NC(=O)N2CCc3cnccc3C2)cc1 [Example 12, N-(4-{[2-(2-thienyl)ethyl]carbamoyl}phenyl)-3,4-dihydro-2,6-naphthyridine-2(1H)-carboxamide] | 45.2 |
| O=C(Nc1ccc(NC(=O)N2CCc3ccccc3C2)cc1)c1ccsc1 [Example 85, N-{4-[(3-thienylcarbonyl)amino]phenyl}-3,4-dihydroisoquinoline-2(1H)-carboxamide] | 242 |

Continued, values first:

| IC50 [nM] | Compound |
| --- | --- |
| 391 | O=C(Nc1ccc(-c2cnn(Cc3ccccc3)c2)cc1)N1CCc2ccccc2C1 [Example 38, N-[4-(1-benzyl-1H-pyrazol-4-yl)phenyl]-3,4-dihydroisoquinoline-2(1H)-carboxamide] |
| 69.2 | O=C(CN1CCOCC1)Nc1ccc(NC(=O)N2CCc3ccccc3C2)cc1 [Example 94, N-{4-[(morpholin-4-ylacetyl)amino]phenyl}-3,4-dihydroisoquinoline-2(1H)-carboxamide] |
| 15 | O=C(NCCCc1ccccc1)c1ccc(NC(=O)N2CCc3cnccc3C2)cc1 [Example 4, N-{4-[(3-phenylpropyl)carbamoyl]phenyl}-3,4-dihydro-2,6-naphthyridine-2(1H)-carboxamide] |
| 611 | O=C(Nc1ccc(/C=C/CCCc2ccccc2)cc1)N1CCc2ccccc2C1 [Example 39, N-{4-[(1E)-5-phenylpent-1-en-1-yl]phenyl}-3,4-dihydroisoquinoline-2(1H)-carboxamide] |
| 116 | O=C(Nc1ccc(NC(=O)N2CCc3ccccc3C2)cc1)c1cncs1 [Example 87, N-{4-[(1,3-thiazol-5-ylcarbonyl)amino]phenyl}-3,4-dihydroisoquinoline-2(1H)-carboxamide] |
| 189 | CCCc1nc(-c2ccc(NC(=O)N3CCc4ccccc4C3)cc2)no1 [Example 56, N-[4-(5-propyl-1,2,4-oxadiazol-3-yl)phenyl]-3,4-dihydroisoquinoline-2(1H)-carboxamide] |
| 530 | O=C(CCN1CCCCC1)Nc1ccc(NC(=O)N2CCc3ccccc3C2)cc1 [Example 93, N-(4-{[3-(piperidin-1-yl)propanoyl]amino}phenyl)-3,4-dihydroisoquinoline-2(1H)-carboxamide] |
| 112 | CS(=O)(=O)N1CC=C(c2ccc(NC(=O)N3CCc4ccccc4C3)cc2)CC1 [Example 53, N-{4-[1-(methylsulfonyl)-1,2,3,6-tetrahydropyridin-4-yl]phenyl}-3,4-dihydroisoquinoline-2(1H)-carboxamide] |
| 20.7 | O=C(NCCCc1ccccc1)c1ccc(NC(=O)N2CCc3ccccc3C2)cc1 [Example 7, N-{4-[(3-phenylpropyl)carbamoyl]phenyl}-3,4-dihydroisoquinoline-2(1H)-carboxamide] |
| 309 | O=C(NCCc1cccs1)c1ccc(NC(=O)N2CCc3ccccc3C2)cn1 [Example 22, N-(6-{[2-(2-thienyl)ethyl]carbamoyl}pyridin-3-yl)-3,4-dihydroisoquinoline-2(1H)-carboxamide] |
| 32.6 | CNC(=O)N1CC=C(c2ccc(NC(=O)N3CCc4ccccc4C3)cc2)CC1 [Example 48, N-{4-[1-(methylcarbamoyl)-1,2,3,6-tetrahydropyridin-4-yl]phenyl}-3,4-dihydroisoquinoline-2(1H)-carboxamide] |
| 15.3 | CC(C)C(=O)N1CC=C(c2ccc(NC(=O)N3CCc4ccccc4C3)cc2)CC1 [Example 46, N-[4-(1-isobutyryl-1,2,3,6-tetrahydropyridin-4-yl)phenyl]-3,4-dihydroisoquinoline-2(1H)-carboxamide] |
